Each block holds one molecule with its values, some of them ahead of it. Where a SMILES comes first, the peptide text is derived from it. [ ]: non-standard residue; d: D form. The star is where a group is joined. Nle = CCCC[C@H](N)C(=O)O; Cbz = O=C(OCc1ccccc1)*
Columns and labels:
HEK cells = test: Cell survival by MTS reagent in p62-transfected HEK cells (FIG. 1D); assay type: cell-based, Human; conditions: ALLN (50 μM) 30 h
Experimental: In FIG. 1D HEK cells (in a 24-well plate) were transfected with myc-tagged wild-type p62, p62ΔUBA, or p62ΔN-term along with HA-tagged ubiquitin constructs. After 24 h of transfection, the cells were treated with or without ALLN (50 μM) for 30 h. Cell survival was assessed by the addition of MTS reagent for 2 h. Values plotted in FIG. 1D are means±standard error of the means of four different experiments.

ubiquitinated tau = test: Accumulation of ubiquitinated tau in tau-transfected HEK cells treated with degradation inhibitors; assay type: cell-based, Human; conditions: 50 μM ALLN, 5 μM MG132 or 0.15 mM chloroquine, 24 h
Excerpt: Depletion of p62 levels by transfection of antisense (AS) p62 retarded the turnover of p62 (FIG. 12A). […] Collectively these findings reveal that tau turnover is regulated by both the expression of p62 and the presence of K63 polyubiquitin chains carried by tau. The best known function of protein ubiquitination is to target proteins for degradation by the 26S proteasome. However, K63 chains have been hypothesized to play a role aside of targeting proteins to the proteasome. To test whether K63 chains are able to signal proteasomal degradation, tau was first ubiquitinylated in an in vitro reaction with K63 ubiquitin. The protein complex containing polyubiquitinated tau on beads was then incubated with 26S proteasome supplemented with MgCl2 and ATP. The polyubiquitinated chains disappeared after incubation with purified 26S proteasome (FIG. 12B). To determine whether the observed disappearance of polyubiquitinated products is due to degradation or to the deubiquitinating activity in the 26S proteasome fraction, a deubiquitination inhibitor, Ub-H was added to the reaction. […] To test if ubiquitinated tau was targeted to the proteasome, HEK cells cotransfected with His-tau were treated with ALLN, MG132 or chloroquine. Both ALLN and MG132 block proteasome degradation, whereas chloroquine blocks degradation through the lysosome. It was observed that ubiquitinated tau accumulates in the presence of proteasome inhibitors, but not chloroquine, thus confirming that polyubiquitinated tau is degraded by the proteasome (FIG. 12C).

GFP-p62-expressing cells = test: Live/Dead Viability/Cytotoxicity assay of cells with or without p62 aggregates; assay type: cell-based; conditions: With ALLN; cells scored by GFP-p62 expression
Experimental: Cell Death Assay—Live and dead cells were identified with LIVE/DEAD Viability/Cytotoxicity Kit (Molecular Probes, Eugene, Oreg.) according to the manufacturer's instruction.
The role of aggregates and their relationship to cell survival are controversial. […] Viability of cells with p62 aggregates employing the Live/Dead Viability/Cytotoxicity assay was determined (Table 1).

[1] = system: p62 aggregates in HEK cells; test: p62 aggregate formation by confocal/fluorescence microscopy in transfected HEK cells; assay type: cell-based, Human; conditions: for large p62 aggregates upon inhibition of proteasomal degradation: MG132 data not shown; for size of aggregates of cotransfected p62, ubiquitin, TRAF6, tau, UbcH7: cotransfected cells (FIG. 9C), MG132 not shown; for formation of the p62 aggregates (microtubule dependence): data not shown
Experimental: Immunofluorescence staining—All steps were done at room temperature unless stated otherwise. The inclusion bodies were placed on poly-L-lysine coated 12 well slides (Cel-line/Erie Scientific Co., Portmouth, N.H.) and let partially dry. Inclusion bodies on the slides were fixed for 10 min in 3% paraformaldehyde (Electron Microscopy Sciences, Fort Washington, Pa.) and permeabilized with 0.1% Triton X-100 in PBS for 15 minutes. The inclusion bodies were incubated in blocking buffer (3% non fat dry milk in PBS) for 1 h, prior to incubation with primary antibodies at 4° C. overnight. After washing with PBS, the secondary antibody (Molecular Probes Inc., Eugene, Oreg.) in blocking buffer was applied for 1 h. After extensive washing in PBS, the samples were mounted using Vectashield (Vector Laboratories Inc., Burlingame, Calif.). The cells were fixed with 3% paraformaldehyde and processed similar to that of inclusion staining.
Cells were incubated with rabbit anti-myc IgG or mouse anti-HA IgG and labeled with Texas Red-conjugated anti-rabbit antibodies (red) or Oregon Green-conjugated anti-mouse antibodies (green), respectively. Merged images with overlapping immunoreactivity are shown in yellow. Note that cells expressing p62 lacking its UBA domain (p62ΔUBA) fail to form aggregates or to colocalize with ubiquitin. All experiments were replicated three independent times with similar results. Small aggregates of p62 colocalized with ubiquitin which was dependant upon the presence of a UBA domain but not the N-terminal portion of p62. Aggregation may impair the proteasome or, alternatively, impaired proteasome activity may seed aggregates. Alternatively, impairment of the proteasome may enhance the formation of p62 aggregates containing polyubiquitin.
In summary, through its UBA domain, p62 Interacts with polyubiquitinated substrates, and the UBA domain is necessary for aggregate formation.
Since TRAF6 localized to the large aggregates along with polyubiquitin (FIG. 2B), these aggregates may represent the failed attempt of the cell to rid itself of TRAF6-K63-polyubiquitinated substrates sequestered through interaction with the UBA domain. […] Altogether, these findings reveal that p62 binds proteins with K63 chains through its UBA domain and that p62 aggregates sequester TRAF6 as well as K63-polyubiquitinated substrates.
To further determine if the coassociation of tau-p62-TRAF6 and UbcH7 could be recapitulated in vitro, a cotransfection approach was undertaken. […] HEK cells were transfected with GFP-p62 followed by treatment or not with Aβ1-42 and Aβ42-1 peptides. […] This is consistent with the observation that microtubule dependent transport is important for the formation of p62 inclusions as assessed by treatment of the cells with nocodazole, a microtubule disrupting agent (9).

PC12 cells = test: Cell survival assay (MTS) in NGF-treated PC12 cells (Table 4); assay type: cell-based; conditions: PC12, NGF 50 ng/ml, MG132 25 μM, Aβ peptides 10 μM, 24 h, 100% without agent
Experimental: Cell Survival Assay—PC 2 cells were treated with 50 ng/ml NGF 24 h prior to addition of TRAF6 control or inhibitor peptide (75 μM). After 5 h, the cells were treated for an additional 24 h with or without MG132 (25 μM), Aβ peptide 42-1 or 1-42 (10 μM). Cell survival was measured by MTS assay.
All cells were treated with NGF (50 ng/ml), followed by addition of control or inhibitory TRAF6 peptide +/−Aβ peptide. Survival was measured by MTS assay.

[2] = system: tau aggregates in PC12 cells; test: Tau aggregate formation in NGF-treated PC12 cells (Table 3); assay type: cell-based; conditions: PC12, NGF 50 ng/ml; MG132 25 μM, Aβ peptides 10 μM; 6% without agent
Experimental: PC12 cells were treated with NGF to induce tau polyubiquitination and treated or not with MG132 or Aβ and Aβ1-42, Aβ42-1. […] The relationship between aggregate formation and cell death was assessed (Tables, 3 & 4). Tau aggregate formation was observed upon treatment with MG1 32 or Aβ1-42 peptide. […] Furthermore, aggregate formation correlated with enhanced […] (Table 4).
All cells were treated with NGF (50 ng/ml), followed by addition of control or inhibitory TRAF6 peptide +/−Aβ peptide. Cells were stained for tau and 300 cells from two independent experiments were scored for the presence of tau aggregates or not.

[3] = biological target: T1, interaction of p62 with TRAF6 (Rattus norvegicus, UniProt B5DF45); test: TRAF6 immunoprecipitation and Western blot for p62/UbcH7 in NGF-stimulated PC12 cells; assay type: cell-based; conditions: 150 μM peptide 5 hours, NGF 15 min
T1 construct: followed by NGF stimulation for 15 min and immunoprecipitation of TRAF6 followed by Western blotting for p62; endogenous in cells; host or cells: PC12
Experimental: Immunoprecipitation and Western blotting—Each mg of lysate/inclusion bodies was incubated with 41 ng of primary antibody at 4° C. for 3 h and then with 50 μl of 50% agarose-coupled secondary antibody for 2 more hours at 4 C. The beads were washed three times with lysis buffer, eluted by adding SDS-PAGE sample buffer, and subjected to SDS-PAGE in 7.5-12% acrylamide gels. Immunoblotting was performed on nitrocellulose membranes and analyzed by western blotting with ECL detection reagents (Amersham Biosciences).
(§1) The region spanning amino acids 225-251 is necessary for the interaction of p62 with TRAF6. The peptide containing TRAF6 binding motif in p62 along with the hydrophobic sequence containing the cell-permeable motif from Kaposi fibroblast growth factor sequence, […]-[…] (SEQ ID NO. 4) and control peptide […]-[…] (SEQ ID NO. 5) was synthesized. As a preliminary step, PC12 cells were pretreated with various concentrations of peptide for 5 h, followed by NGF stimulation for 15 min and immunoprecipitation with TRAF6 and western blotted with p62. […] The peptide was then tested for its ability to block NGF-induced tau polyubiquitination (FIG. 13A).
(§2) The peptide containing the TRAF6-binding motif in p62 along with the hydrophobic sequence containing the cell-permeable motif from Kaposi fibroblast growth factor signal sequence […]-[…] (SEQ ID NO. 4) and control peptide […]-[…] (SEQ ID NO. 5) was synthesized. As a preliminary step, PC12 cells were pretreated with different concentrations (75-300 μM) of TRAF6 peptide for 5 hours followed by NGF stimulation for 15 min and immunoprecipitation of TRAF6 followed by Western blotting for p62. […] To address whether TRAF6 peptide affects the interaction of p62 and UbcH7 with TRAF6, PC12 cells were treated with or without 150 μM of control peptide or TRAF6 peptide for 5 hours and then stimulated with NGF for 15 min. By immunoprecipitating TRAF6, TRAF6 peptide (150 μM) abrogated the interaction of p62 with TRAF6, but not UbcH7, upon NGF treatment (FIG. 8A). […] The ability of the TRAF6 peptide to impair the ubiquitination process was investigated. Lysates recovered from NGF treated cells were immunoprecipitated with TrkA receptor antibody and blotted for ubiquitin or the receptor (FIG. 15B). […] The ability of the peptide to interrupt the formation of the functional TrkA-p62-TRAF6-UbcH7 complex on NGF stimulation as well was also investigated. TrkA was immunoprecipitated and blotted for the presence of each protein in the complex (FIG. 15C).

TrkA = test: NGF-dependent TrkA ubiquitination and TrkA complex formation in PC12 cells (FIG. 15B, 15C); assay type: cell-based; conditions: NGF treated, TrkA immunoprecipitation
Experimental: as §2

tau polyubiquitination = test: NGF-induced tau polyubiquitination in PC12 cells (FIG. 13A); assay type: cell-based; conditions: control not shown
Experimental: as §1

[4] = system: internalization of NGF by PC12 cells; test: Internalization of NGF, 125I-NGF binding assay in PC12 cells (FIG. 15D); assay type: cell-based; conditions: PC12 cells pretreated with peptide (150 μM); control not shown
Experimental: Additionally, PC12 cells were pretreated or not with TRAF6 peptide (150 μM) followed by measurement of internalized receptor employing 125I-NGF binding assay (FIG. 15D). […] Similarly, the level of internalized NGF was measured in PC12 cells transfected with wild-type ubiquitin, K48R or K63R ubiquitin mutants (FIG. 15E). Transfection of ubiquitin, or K48R mutant was without any effect on internalization of NGF. By comparison, transfection of K63R ubiquitin mutant totally abrogated internalization of the ligand. […] Thus, p62 serves as an adaptor, as well as, a scaffold for TRAF6-directed ubiquitination and K63 chains play a signaling role for internalization and sorting of the receptor.

T1 sequence (B5DF45 whole entry): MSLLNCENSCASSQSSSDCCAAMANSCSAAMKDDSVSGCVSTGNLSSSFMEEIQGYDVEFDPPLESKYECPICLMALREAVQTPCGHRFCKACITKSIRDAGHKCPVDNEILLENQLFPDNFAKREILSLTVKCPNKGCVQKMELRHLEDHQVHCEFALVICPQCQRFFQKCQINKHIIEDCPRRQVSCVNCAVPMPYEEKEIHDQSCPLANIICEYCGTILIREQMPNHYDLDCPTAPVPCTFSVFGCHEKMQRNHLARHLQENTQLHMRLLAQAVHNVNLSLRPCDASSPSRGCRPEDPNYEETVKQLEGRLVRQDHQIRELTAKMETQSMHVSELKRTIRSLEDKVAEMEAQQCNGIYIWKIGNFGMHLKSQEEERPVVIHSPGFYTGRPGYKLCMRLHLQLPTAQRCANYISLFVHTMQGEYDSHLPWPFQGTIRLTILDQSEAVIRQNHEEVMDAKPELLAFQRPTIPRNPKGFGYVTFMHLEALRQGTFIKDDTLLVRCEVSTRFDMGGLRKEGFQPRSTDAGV
T1 sequence (D3Z8W5 1-154 partner): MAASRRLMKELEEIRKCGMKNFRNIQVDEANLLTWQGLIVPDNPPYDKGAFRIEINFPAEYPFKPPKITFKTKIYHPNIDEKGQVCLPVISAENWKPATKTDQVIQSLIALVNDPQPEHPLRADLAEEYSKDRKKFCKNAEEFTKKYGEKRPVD

Molecule: CCCC[C@@H](C=O)NC(=O)[C@H](CC(C)C)NC(=O)[C@H](CC(C)C)NC(C)=O [ALLN, N-acetyl-Leu-Leu-Norleu-AL] (Ac-Leu-Leu-[Nle]-aldehyde)
cell survival-promoting effects of p62 (HEK cells): completely inhibited
accumulation of ubiquitinated tau (ubiquitinated tau): accumulates
% of cells, With aggregates, Alive (GFP-p62-expressing cells): 48%
% of cells, With aggregates, Dead (GFP-p62-expressing cells): 52%
% of cells, Without aggregates, Alive (GFP-p62-expressing cells): 38%
% of cells, Without aggregates, Dead (GFP-p62-expressing cells): 62%
size of the aggregates ([1]; HEK cells, ALLN (50 μM) 24 h, 6 to 8 microns without ALLN): 12 to 14 microns
GFP-p62-expressing cells accumulating large p62 aggregates ([1]; HEK cells, ALLN treatment): 100%
average number of aggregates per cell ([1]; HEK cells, with versus without ALLN): essentially similar
large p62 aggregates upon inhibition of proteasomal degradation ([1]; HEK cells): large aggregates of p62 which contained sequestered polyubiquitin were visible
size of aggregates of cotransfected p62, ubiquitin, TRAF6, tau, UbcH7 [1]: increased in size

Molecule: CC(C)C[C@@H](C=O)NC(=O)[C@H](CC(C)C)NC(=O)[C@H](CC(C)C)NC(=O)OCc1ccccc1 [MG132, Z-Leu-Leu-Leu-CHO] (Cbz-Leu-Leu-Leu-aldehyde)
cell survival, agent alone (Control, no TRAF6 peptide) (PC12 cells): 44.3%
accumulation of ubiquitinated tau (ubiquitinated tau): accumulates
cells with tau aggregates, agent alone (Control, no TRAF6 peptide) [2]: 82%
large p62 aggregates upon inhibition of proteasomal degradation ([1]; HEK cells): large aggregates of p62 which contained sequestered polyubiquitin were visible
size of aggregates of cotransfected p62, ubiquitin, TRAF6, tau, UbcH7 [1]: increased in size

Molecule: CCN(CC)CCCC(C)Nc1ccnc2cc(Cl)ccc12 (centres unmarked) [chloroquine]
accumulation of ubiquitinated tau (ubiquitinated tau): not

Molecule: COC(=O)Nc1nc2ccc(C(=O)c3cccs3)cc2[nH]1 [nocodazole]
formation of the p62 aggregates (microtubule dependence) [1]: prevented their formation

Molecule: CC[C@]1(O)C[C@@H]2CN(CCc3c([nH]c4ccccc34)[C@@](C(=O)OC)(c3cc4c(cc3OC)N(C)[C@H]3[C@@](O)(C(=O)OC)[C@H](OC(C)=O)[C@]5(CC)C=CCN6CC[C@]43[C@@H]65)C2)C1 [vinblastine]
formation of the p62 aggregates (microtubule dependence) [1]: prevented their formation

interaction of p62 with TRAF6 [3]: without effect
Molecule: AAVALLPAVLLALLAP-ESASGASADASVNFLK [control peptide]
NGF-dependent ubiquitination of TrkA (TrkA): no effect
NGF-induced tau polyubiquitination (tau polyubiquitination): not
internalization of NGF [4]: not

Molecule: Aβ1-42: neurotoxic amyloid beta peptide
cell survival, agent alone (Control, no TRAF6 peptide) (PC12 cells): 45.7%
cells with tau aggregates, agent alone (Control, no TRAF6 peptide) [2]: 72%
formation of p62 aggregates by Aβ peptide ([1]; HEK cells transfected with GFP-p62 (FIG. 9D)): induced formation of p62 aggregates

From patent US7491501B2, “Methods for identifying modulators of intracellular aggregate formation” (Auburn University, priority 2003, dated 2009)
